Publication PMC8111429 (2021)

Tests used:
[1] = tested on: F21T (DNA, G4) GGGTTAGGGTTAGGGTTAGGG; experiment: FRET melting; details: K+ 10 mM, Na+ 10 mM, Li+ 90 mM; KCl–LiCl–cacodylate, pH 7.0; LDR 5; DNA 0.2 mM [sic] (0.2 µM, ligand 1 µM)
[2] = tested on: FmycT (DNA, G4) TGAGGGTGGGTAGGGTGGGTA; experiment: FRET melting; details: K+ 10 mM, Na+ 10 mM, Li+ 90 mM; KCl–LiCl–cacodylate, pH 7.0; LDR 5; DNA 0.2 mM [sic] (0.2 µM, ligand 1 µM)
[3] = tested on: 22AG (DNA, G4) AGGGTTAGGGTTAGGGTTAGGG; experiment: photometric (absorption) titration; details: K+ 110 mM; K-phosphate buffer, pH 7.0, 5% v/v DMSO; ligand 20 µM; per site
[4] = tested on: Fa2T (DNA, G4) ACAGGGTGTACAGGGTGT; experiment: FRET melting; details: K+ 10 mM, Na+ 10 mM, Li+ 90 mM; KCl–LiCl–cacodylate, pH 7.0; LDR 5; DNA 0.2 mM [sic] (0.2 µM, ligand 1 µM)
[5] = tested on: FkitT (DNA, G4) AGGGAGGGCGCTGGGAGGAGGG; experiment: FRET melting; details: K+ 10 mM, Na+ 10 mM, Li+ 90 mM; KCl–LiCl–cacodylate, pH 7.0; LDR 5; DNA 0.2 mM [sic] (0.2 µM, ligand 1 µM)

Structure (SMILES) | ∆Tm [1] [°C] | ∆Tm [2] [°C] | Kb [3] | ∆Tm [4] [°C] | ∆Tm [5] [°C]
COc1c(Oc2ccc(Br)cc2)ccc2cc3[n+](cc12)CCc1cc2c(cc1-3)OCO2 | 1.8 ± 0.5 | 2.1 ± 0.5 | 5.2 ± 0.3 × 10^5 M^-1 |  | 
COc1c(Oc2ccc(Cl)cc2)ccc2cc3[n+](cc12)CCc1cc2c(cc1-3)OCO2 | 2.6 ± 0.5 |  | 7.1 ± 0.2 × 10^5 M^-1 | 1.2 ± 0.5 | 
COc1c(Oc2ccc([N+](=O)[O-])cc2)ccc2cc3[n+](cc12)CCc1cc2c(cc1-3)OCO2 | 3.5 ± 0.5 | 1.8 ± 0.5 | 7.9 ± 0.3 × 10^5 M^-1 |  | 
COc1c(Oc2ccccc2)ccc2cc3[n+](cc12)CCc1cc2c(cc1-3)OCO2 | 3.2 ± 0.5 | 0.4 ± 0.5 | 8.7 ± 0.2 × 10^5 M^-1 |  | 0.1 ± 0.5
COc1ccc(Oc2ccc3cc4[n+](cc3c2OC)CCc2cc3c(cc2-4)OCO3)cc1 | 3.9 ± 0.5 |  | 7.2 ± 0.2 × 10^5 M^-1 | 0.1 ± 0.5 | 0.6 ± 0.5
